# Literature values, collected in patent US20060008520A1, “Delayed release formulations of 6-mercaptopurine” (priority 2004, published 2006).
smiles,measurement,value
"Sc1ncnc2nc[nH]c12 [6-MP, 6-mercaptopurine]",fraction of an oral dose absorbed,Approximately 50%
